These results are taken from ChEMBL document CHEMBL5370661, “Development of Fluorescent AF64394 Analogues Enables Real-Time Binding Studies for the Orphan Class A GPCR GPR3” (J Med Chem, 2023).

Activity calls are given as the source filed them. No cut-off for these calls is given here. Where only a bound is given, the exact number is not on record here.

The target in series [1] is T1, G-protein coupled receptor 3 (Homo sapiens, UniProt P46089). The series can be described thus: Binding affinity to N-terminal 3xHA/Nluc-tagged full-length wild-type human GPR3 expressed in HEK293A cells using vivazine as substrate by time-course saturation based NanoBRET assay. Type of series: cell-based. The note with it: HEK293-A, time 180.0 min, TDE = time-dependent effect. For orientation: Bioluminescence resonance energy transfer reports proximity on the nanometre scale.

Series [2] addresses T1, G-protein coupled receptor 3. Description: Binding affinity to N-terminal 3xHA/Nluc-tagged full-length wild-type human GPR3 expressed in HEK293A cells using vivazine as substrate measured for 180 mins by time-course saturation based NanoBRET assay. Type of series: cell-based. As to conditions: for Activity: HEK293-A.
The target is the same in series [3]. Description: Binding affinity to N-terminal 3xHA/Nluc-tagged full-length wild-type human GPR3 expressed in HEK293A cells using vivazine as substrate at <=30 uM measured for 180 mins by time-course saturation based NanoBRET assay. The note with it: HEK293-A. The class given is cell-based.
The target is the same in series [4]. Description: Total binding affinity to N-terminal 3xHA/Nluc-tagged full-length wild-type human GPR3 expressed in HEK293A cells using furimazine as substrate measured for 3 hrs by NanoBRET assay. Type of series: cell-based, HEK293-A.
For series [5] the target is unchanged. Description: Binding affinity to N-terminal 3xHA/Nluc-tagged full-length wild-type human GPR3 expressed in HEK293A cells assessed as increase in BRET ratio incubated for 180 mins by NanoBRET assay. The class given is cell-based. The note with it: HEK293-A.
For series [6] the target is unchanged. Description: Specific binding affinity to N-terminal 3xHA/Nluc-tagged full-length wild-type human GPR3 expressed in HEK293A cells using furimazine as substrate measured for 3 hrs by NanoBRET assay. The class given is cell-based, HEK293-A.
Series [7] is described as follows: Specific binding affinity to N-terminal 3xHA/Nluc-tagged full-length wild-type human GPR12 expressed in HEK293A cells using furimazine as substrate measured for 3 hrs by NanoBRET assay. Type of series: cell-based. The note with it: hek293-a.
Series [8] concerns the target T2, G-protein coupled receptor 6 (Homo sapiens, UniProt P46095). The series can be described thus: Specific binding affinity to full-length wild-type human brain GPR6 expressed in HEK293A cells using furimazine as substrate measured for 3 hrs by NanoBRET assay. Type of series: cell-based, HEK293-A.
Series [9] has as its target T1, G-protein coupled receptor 3. Description: Competitive total binding affinity to N-terminal 3xHA/Nluc-tagged full-length wild-type human GPR3 expressed in HEK293A cells using furimazine as substrate at 1 uM measured for 3 hrs in presence of AF64394 by NanoBRET assay. The class given is cell-based, HEK293-A.
Series [10] deals with T2, G-protein coupled receptor 6. The series can be described thus: Competitive total binding affinity to full-length wild-type human brain GPR6 expressed in HEK293A cells using furimazine as substrate at 1 uM measured for 3 hrs in presence of CVN424 by NanoBRET assay. The class given is cell-based, HEK293-A.
The target in series [11] is T1, G-protein coupled receptor 3. Description: Modulation of N-terminal 3xHA/Nluc-tagged full-length wild-type human GPR3 expressed in HEK293A cells using furimazine as substrate at 1 uM measured for 3 hrs in presence of DPI by NanoBRET assay. The class given is cell-based, HEK293-A.
Series [12] has the same target. Description: Binding affinity to N-terminal 3xHA/Nluc-tagged full-length wild-type human GPR3 expressed in HEK293A cells using vivazine as substrate assessed as increase in BRET ratio by time-course saturation based NanoBRET assay. The class given is cell-based. As to conditions: HEK293-A, filed as modulator.
The target is the same in series [13]. The series can be described thus: Inverse agonist activity at N-terminal 3xHA/Nluc-tagged full-length wild-type human GPR3 expressed in HEK293A cells co-expressing Fluc-tagged CRE assessed as reduction in CRE gene expression at 10 uM incubated for 24 hrs by luciferase based assay. The class given is functional, cell-based. The note with it: HEK293-A, filed as inverse agonist.

For series [14], the system named is HEK293-A. The series can be described thus: Downregulation of CRE gene activity in HEK293-A cells expressing GPR6 incubated for 24 hrs by luciferase based assay. Type of series: functional, cell-based. As to conditions: Homo sapiens.
Series [15] deals with HEK293-A. The series can be described thus: Downregulation of CRE gene activity in HEK293-A cells expressing GPR12 incubated for 24 hrs by luciferase based assay. Type of series: functional, cell-based. As to conditions: Homo sapiens.
In series [16] the test system is G-protein coupled receptor 3 (Homo sapiens), P46089 [V186W,V187W,Y188W]. Description: Binding affinity to Nluc-tagged GPR3 V186W/V187W/Y188W mutant (unknown origin) expressed in HEK293A cells assessed as decrease in cAMP level by biosensor based FRET assay. The class given is cell-based. The note with it: HEK293-A. In general terms: Changes in cAMP serve as a functional read-out for many G protein-coupled receptors.

The subject of series [17] is G-protein coupled receptor 3 (Homo sapiens), P46089 [Y188W]. Description: Binding affinity to Nluc-tagged GPR3 Y188W mutant (unknown origin) expressed in HEK293A cells assessed as decrease in cAMP level by biosensor based FRET assay. The note with it: HEK293-A, filed as modulator. The class given is cell-based.
For series [18], the system named is G-protein coupled receptor 3 (Homo sapiens), P46089 [V187W,Y188W]. Description: Binding affinity to Nluc-tagged GPR3 V187W/Y188W mutant (unknown origin) expressed in HEK293A cells assessed as decrease in cAMP level by biosensor based FRET assay. The class given is cell-based. The note with it: HEK293-A, filed as modulator.
In series [19] the test system is HEK293-A. The series can be described thus: Binding affinity to Nluc-tagged GPR3 T279A/Y280A mutant (unknown origin) expressed in HEK293A cells assessed as decrease in cAMP level by biosensor based FRET assay. The class given is cell-based. The note with it: Homo sapiens, filed as modulator.
Series [20] has as its target T1, G-protein coupled receptor 3. The series can be described thus: Binding affinity to N-terminal 3xHA/Nluc-tagged full-length wild-type human GPR3 expressed in HEK293A cells using vivazine as substrate at <10 uM measured for 180 mins by time-course saturation based NanoBRET assay. Type of series: cell-based. As to conditions: HEK293-A.
Series [21] in a line: Chemical stability of compound in aqueous solution assessed as compound degradation incubated for 104 days by RP-HPLC analysis. Type of series: physicochemical. As to conditions: buffer, 2496 h; time 104 day.
Series [22] addresses T1, G-protein coupled receptor 3. The series can be described thus: Binding affinity to N-terminal 3xHA/Nluc-tagged full-length wild-type human GPR3 expressed in HEK293A cells using vivazine as substrate at 20 to 30 uM measured for 180 mins by time-course saturation based NanoBRET assay. Type of series: cell-based. The note with it: HEK293-A, dose 20-30 µM.
A short description of series [23]: Chemical stability of compound in DMSO assessed as compound degradation incubated for 104 days by RP-HPLC analysis. The note with it: 2496 h; time 104 day. The class given is physicochemical.

T1 sequence (P46089 whole entry): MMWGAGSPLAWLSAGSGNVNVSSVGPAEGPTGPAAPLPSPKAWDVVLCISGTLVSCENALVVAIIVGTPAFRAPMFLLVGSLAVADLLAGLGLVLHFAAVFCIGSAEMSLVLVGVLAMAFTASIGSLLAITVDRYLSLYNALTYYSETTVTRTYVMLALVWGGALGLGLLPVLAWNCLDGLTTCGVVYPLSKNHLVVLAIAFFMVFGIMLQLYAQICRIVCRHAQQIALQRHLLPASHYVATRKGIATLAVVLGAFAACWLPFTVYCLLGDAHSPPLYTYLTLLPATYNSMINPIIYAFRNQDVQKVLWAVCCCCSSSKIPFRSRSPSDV
T2 sequence (P46095 whole entry): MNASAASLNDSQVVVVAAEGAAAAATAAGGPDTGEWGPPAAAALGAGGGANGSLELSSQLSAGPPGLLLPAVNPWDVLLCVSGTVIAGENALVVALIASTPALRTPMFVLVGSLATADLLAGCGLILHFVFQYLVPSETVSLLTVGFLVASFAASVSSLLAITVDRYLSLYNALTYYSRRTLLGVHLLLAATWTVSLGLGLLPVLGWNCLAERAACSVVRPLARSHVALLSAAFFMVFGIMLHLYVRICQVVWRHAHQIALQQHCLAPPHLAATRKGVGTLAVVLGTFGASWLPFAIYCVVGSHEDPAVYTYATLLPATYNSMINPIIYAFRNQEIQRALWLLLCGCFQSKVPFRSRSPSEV
G-protein coupled receptor 3 (Homo sapiens), P46089 [V186W,V187W,Y188W], sequence (P46089 whole entry V186W/V187W/Y188W): as the sequence (P46089 whole entry) above, with V186W, V187W, Y188W counted along it
G-protein coupled receptor 3 (Homo sapiens), P46089 [V187W,Y188W], sequence (P46089 whole entry V187W/Y188W): as the sequence (P46089 whole entry) above, with V187W, Y188W counted along it
G-protein coupled receptor 3 (Homo sapiens), P46089 [Y188W], sequence (P46089 whole entry Y188W): as the sequence (P46089 whole entry) above, with Y188W counted along it

Regarding `CC(C)Oc1cc(Cl)ccc1CNc1cc(-c2ccc(OCCCCCCNC(=O)c3ccc(-c4c5ccc(N(C)C)cc5[o+]c5cc(N(C)C)ccc45)c(C(=O)[O-])c3)cc2)nc2ncnn12`, the results for the Activity entry in series [1] and in series [2] were “Tde” and “Dose-Dependent Effect”, respectively. In addition, the result in series [3] was Active. In series [4], this compound had a concentration giving a half-maximal response (EC50) of 11.2 µM.
Regarding `CN(C)c1ccc2c(-c3ccc(C(=O)NCCCC(=O)Nc4ccc(CCN5CN(c6ccccc6)C6(CCN(CCCC(=O)c7ccc(F)cc7)CC6)C5=O)cc4)cc3C(=O)[O-])c3ccc(N(C)C)cc3[o+]c2c1`, the outcome in [5] was inactive.
In the case of `CC(C)Oc1cc(Cl)ccc1CNc1cc(-c2ccccc2OCCCCCCNC(=O)c2ccc(-c3c4ccc(N(C)C)cc4[o+]c4cc(N(C)C)ccc34)c(C(=O)[O-])c2)nc2ncnn12`, the Kd was 0.302 µM in series [6], 0.102 µM in [2] and 0.0661 µM in [8]. Also, the figures for the Activity entry in series [1] (filed as modulator), in series [2] (filed as modulator) and in series [12] were “Tde”, “Dose-Dependent Effect” and “Dose-Dependent Effect”, respectively. Further, the result (in [3] (filed as modulator); in series [13]; with HEK293-A [14]; with HEK293-A [15]; in series [16] (filed as modulator); in [17]) was Active. Also, the result (in [18]; in the series on HEK293-A [19]) was Active. Besides, the EC50 is 0.891 µM in series [4] and 1.41 µM in series [11]. Also, the pKd in [7] stood at 7.12. In addition, the IC50 in [9] is 1.26 µM; in series [10], 0.214 µM. Besides, the Ki is 0.295 µM in series [9] and 0.0132 µM in series [10].
As to `CC(C)Oc1cc(Cl)ccc1CNc1cc(-c2ccc(OCCOCCOCCOCCNC(=O)c3ccc(-c4c5ccc(N(C)C)cc5[o+]c5cc(N(C)C)ccc45)c(C(=O)[O-])c3)cc2)nc2ncnn12`, the results for the Activity entry in [1] and in series [2] were “Tde” and “Dose-Dependent Effect”, respectively. Besides, the result in series [3] was Active. For the same compound, the result in series [20] was inactive. Also, the EC50 in series [4] is above 10 µM.
On to `CC(C)Oc1cc(Cl)ccc1CNc1cc(-c2ccccc2OCCOCCOCCOCCNC(=O)c2ccc(-c3c4ccc(N(C)C)cc4[o+]c4cc(N(C)C)ccc34)c(C(=O)[O-])c2)nc2ncnn12`, for which the Stability entry in series [21] is on record as “Stable”. Further, the results for the Activity result in series [1] and in series [2] were “Tde” and “Dose-Dependent Effect”, respectively. The outcome in series [3] was Active. Besides, in [22], the result was inactive. The compound further had an EC50 in [4] of 3.39 µM.
Turning to `COCC[N+]1=C(/C=C/C=C2/N(CCCCCC(=O)NCCOCCOCCOCCOc3ccc(-c4cc(NCc5ccc(Cl)cc5OC(C)C)n5ncnc5n4)cc3)c3ccc(S(=O)(=O)O)cc3C2(C)CCCS(=O)(=O)O)C(C)(CCCS(=O)(=O)O)c2cc(S(=O)(=O)[O-])ccc21` (configuration not stated), the result in series [2] was inactive. Besides, the EC50 in series [4] was above 31.6 µM.
For `COCC[N+]1=C(/C=C/C=C2/N(CCCCCC(=O)NCCOCCOCCOCCOCCOCCOc3ccccc3-c3cc(NCc4ccc(Cl)cc4OC(C)C)n4ncnc4n3)c3ccc(S(=O)(=O)O)cc3C2(C)CCCS(=O)(=O)O)C(C)(CCCS(=O)(=O)O)c2cc(S(=O)(=O)[O-])ccc21` (configuration not stated), in that order: “inactive” and above 31.6 µM.
As for `CC(C)Oc1cc(Cl)ccc1CNc1cc(-c2cccc(OCCCCCCNC(=O)c3ccc(-c4c5ccc(N(C)C)cc5[o+]c5cc(N(C)C)ccc45)c(C(=O)[O-])c3)c2)nc2ncnn12`, the Stability entry in series [23] is “Stable”. Further, the Activity result was “Tde” in series [1] and “Dose-Dependent Effect” in series [2]. Also, the outcome in series [3] was Active. For the same compound, in series [4], the concentration giving a half-maximal response (EC50) is 4.47 µM.
As for `CC(C)Oc1cc(Cl)ccc1CNc1cc(-c2ccccc2OCCOCCOCCOCCNC(=O)CCCCCN2/C(=C/C=C/C3=[N+](CCOO)c4ccc(S(=O)(=O)O)cc4C3(C)CCCS(=O)(=O)[O-])C(C)(CCCS(=O)(=O)O)c3cc(S(=O)(=O)O)ccc32)nc2ncnn12` (configuration not stated), the outcome in series [2] was inactive. In addition, the EC50 in series [4] was above 31.6 µM.
In the case of `CC(C)Oc1cc(Cl)ccc1CNc1cc(-c2cccc(OCCOCCOCCOCCNC(=O)c3ccc(-c4c5ccc(N(C)C)cc5[o+]c5cc(N(C)C)ccc45)c(C(=O)[O-])c3)c2)nc2ncnn12`, the Activity entry was “Tde” in series [1] and “Dose-Dependent Effect” in series [2]. In [3], the outcome was Active. Moreover, the result in [20] was inactive. The compound further gave an EC50 in [4] above 10 µM.
Take `CC(C)Oc1cc(Cl)ccc1CNc1cc(-c2cc(F)ccc2Cl)nc2ncnn12`: the result in series [13] was Active. Moreover, the outcome in series [16] was inactive.
For `CC(C)Oc1cc(Cl)ccc1CNc1cc(-c2ccccc2OCCOCCOCCOCCOCCOCCNC(=O)c2ccc(-c3c4ccc(N(C)C)cc4[o+]c4cc(N(C)C)ccc34)c(C(=O)[O-])c2)nc2ncnn12`, the Activity entry was “Tde” in series [1] and “Dose-Dependent Effect” in [2]. Also, in series [3], the result was Active. For the same compound, in [22], the result was inactive. Further, the EC50 in [4] was 4.47 µM.
On to `COCC[N+]1=C(/C=C/C=C2/N(CCCCCC(=O)NCCOCCOCCOCCOc3cccc(-c4cc(NCc5ccc(Cl)cc5OC(C)C)n5ncnc5n4)c3)c3ccc(S(=O)(=O)O)cc3C2(C)CCCS(=O)(=O)O)C(C)(CCCS(=O)(=O)O)c2cc(S(=O)(=O)[O-])ccc21` (configuration not stated), for which, in series [2], the outcome was inactive. Further, the EC50 in series [4] was above 31.6 µM.

In general, EC50 refers to the midpoint of the concentration-response curve. In general, Kd refers to the equilibrium constant for the complex coming apart. One may read the pKd as the negative decadic logarithm of the Kd, by convention in mol/L. Low values mean a large Kd, high ones a small Kd. In general, IC50 refers to the concentration that gives 50% inhibition. By Ki is commonly meant a measure of affinity in units of concentration, obtained from inhibition or displacement.
